Test results from patent publication US10517294B2, “Dihydrothiophene derivatives as insecticidal compounds” (priority 2012, dated 2019).

Legend:
Assay type in all cases: in vivo
Diabrotica balteata = Diabrotica balteata (corn root worm), sprayed maize sprouts; details: 96 h, application rate 200 ppm, L2 larvae on sprayed maize sprouts, 4 days after infestation, read-out: control (at least one of mortality, growth inhibition)
Method: Maize sprouts, placed on an agar layer in 24-well microtiter plates were treated with aqueous test solutions prepared from 10′000 ppm DMSO stock solutions by spraying. After drying, the plates were infested with L2 larvae (6 to 10 per well). The samples were assessed for mortality and growth inhibition 4 days after infestation. Control of Diabrotica balteata by a test sample is noted when at least one of mortality and growth inhibition is better than the untreated sample.

Tetranychus urticae = Tetranychus urticae (two-spotted spider mite), sprayed bean leaf discs; details: foliar, 192 h, application rate 200 ppm, mixed ages on bean leaf discs, 8 days after infestation, read-out: control (mortality, mobile stages)
Method: Bean leaf discs on agar in 24-well microtiter plates were sprayed with aqueous test solutions prepared from 10′000 ppm DMSO stock solutions. After drying the leaf discs were infested with a mite population of mixed ages. The samples were assessed for mortality (mobile stages) 8 days after infestation.

Plutella xylostella = Plutella xylostella (diamond back moth), artificial diet; details: 120 h, application rate 200 ppm, L2 larvae on artificial diet, 5 days after infestation, read-out: control (at least one of mortality, growth inhibition)
Method: 24-well microtiter plates with artificial diet were treated with aqueous test solutions prepared from 10′000 ppm DMSO stock solutions by pipetting. After drying, the plates were infested with L2 larvae (10 to 15 per well). The samples were assessed for mortality and growth inhibition 5 days after infestation. Control of Plutella xyllostella by a test sample is noted when at least one of mortality and growth inhibition is better than the untreated sample.

Spodoptera littoralis = Spodoptera littoralis (Egyptian cotton leaf worm), sprayed cotton leaf discs; details: foliar, 72 h, application rate 200 ppm, L1 larvae on cotton leaf discs, 3 days after infestation, read-out: control (at least one of mortality, anti-feedant effect, growth inhibition)
Method: Cotton leaf discs were placed on agar in 24-well microtiter plates and sprayed with aqueous test solutions prepared from 10′000 ppm DMSO stock solutions. After drying the leaf discs were infested with five L1 larvae. The samples were assessed for mortality, anti-feedant effect, and growth inhibition 3 days after infestation. Control of Spodoptera littoralis by a test sample is noted when at least one of mortality, anti-feedant effect, and growth inhibition is better than the untreated sample.

Thrips tabaci = Thrips tabaci (onion thrips), sprayed sunflower leaf discs; details: foliar, 144 h, application rate 200 ppm, mixed ages on sunflower leaf discs, 6 days after infestation, read-out: control (mortality)
Method: Sunflower leaf discs were placed on agar in 24-well microtiter plates and sprayed with aqueous test solutions prepared from 10′000 ppm DMSO stock solutions. After drying the leaf discs were infested with a thrips population of mixed ages. The samples were assessed for mortality 6 days after infestation.

Heliothis virescens = Heliothis virescens (tobacco budworm), eggs on artificial diet; details: application rate 200 ppm, eggs 0-24 h old on artificial diet, 5 days after infestation, read-out: control (at least one of egg mortality, larval mortality, growth inhibition)
Method: Eggs (0-24 h old) were placed in 24-well microtiter plates on artificial diet and treated with aqueous test solutions prepared from 10′000 ppm DMSO stock solutions by pipetting. The samples were assessed for egg mortality, larval mortality and growth inhibition 5 days after infestation. Control of Heliothis virescens by a test sample is noted when at least one of egg mortality, larval mortality and growth inhibition is better than the untreated sample.

Cc1cc(C2=CS[C@@](c3cc(Cl)cc(Cl)c3)(C(F)(F)F)C2)ccc1C(=O)N[C@H]1C[S@@+]([O-])C1 [Compound D8, 4-[(2S)-2-(3,5-dichlorophenyl)-2-(trifluoromethyl)-3H-thiophen-4-yl]-2-methyl-N-(1-oxothietan-3-yl)benzamide]
≥ 80%: mortality at 200 ppm (Diabrotica balteata) | mortality at 200 ppm (Tetranychus urticae) | mortality at 200 ppm (Plutella xylostella) | percent control (mortality, anti-feedant effect or growth inhibition) at 200 ppm (Spodoptera littoralis) | mortality at 200 ppm (Thrips tabaci)

Cc1cc(C2=CS[C@](c3cc(Cl)cc(Cl)c3)(C(F)(F)F)C2)ccc1C(=O)N[C@H]1C[S@@+]([O-])C1 [Compound D4, 4-[(2R)-2-(3,5-dichlorophenyl)-2-(trifluoromethyl)-3H-thiophen-4-yl]-2-methyl-N-(1-oxothietan-3-yl)benzamide]
≥ 80%: mortality at 200 ppm (Heliothis virescens) | mortality at 200 ppm (Diabrotica balteata) | mortality at 200 ppm (Tetranychus urticae) | mortality at 200 ppm (Plutella xylostella) | percent control (mortality, anti-feedant effect or growth inhibition) at 200 ppm (Spodoptera littoralis) | mortality at 200 ppm (Thrips tabaci)

CCN1OC[C@@H](NC(=O)c2ccc(C3=CS[C@](c4cc(Cl)cc(Cl)c4)(C(F)(F)F)C3)cc2C)C1=O [Compound D3, 4-[(2R)-2-(3,5-dichlorophenyl)-2-(trifluoromethyl)-3H-thiophen-4-yl]-N-[(4R)-2-ethyl-3-oxo-isoxazolidin-4-yl]-2-methyl-benzamide]
≥ 80%: mortality at 200 ppm (Heliothis virescens) | mortality at 200 ppm (Diabrotica balteata) | mortality at 200 ppm (Tetranychus urticae) | mortality at 200 ppm (Plutella xylostella) | percent control (mortality, anti-feedant effect or growth inhibition) at 200 ppm (Spodoptera littoralis) | mortality at 200 ppm (Thrips tabaci)

CCN1OC[C@@H](NC(=O)c2ccc(C3=CS[C@@](c4cc(Cl)cc(Cl)c4)(C(F)(F)F)C3)cc2C)C1=O [Compound D7, 4-[(2S)-2-(3,5-dichlorophenyl)-2-(trifluoromethyl)-3H-thiophen-4-yl]-N-(2-ethyl-3-oxo-isoxazolidin-4-yl)-2-methyl-benzamide]
≥ 80%: mortality at 200 ppm (Diabrotica balteata) | mortality at 200 ppm (Tetranychus urticae) | mortality at 200 ppm (Plutella xylostella) | percent control (mortality, anti-feedant effect or growth inhibition) at 200 ppm (Spodoptera littoralis) | mortality at 200 ppm (Thrips tabaci)
